Data: patent publication US10968224B2, “2,11-diaza-[3.3](2,6)pyridinophane compounds and their application as ligands of essential metal ion based MRI contrast agents and 52MN based PET contrast agents” (DEBRECENI EGYETEM, priority 2015, dated 2021)

Assays:
[1] = literature values, stated as under the same conditions; cited from earlier work
[2] = cited from earlier work
[3] = Equilibrium study: protonation constants of the ligands; format: physicochemical; settings: 25° C., 0.15M NaCl
Description: (§1) During the physico-chemical studies of BP2AM^Pyp and BP2AM^Pro compounds prepared according to Example 1 and 2, their protonation constants, as well as equilibrium behaviour and kinetic inertness of their Mn(II) complexes was studied in detail, and the characteristic relaxivity values of the complexes were determined in the presence and absence of HSA (Human Serum Albumin), at 25 and 37° C. and physiological pH. All studies were performed in the presence of 0.15 M NaCl, the same concentration as that of the electrolyte under physiological conditions.
(§2) The results of equilibrium study are summarized in Table 1, in addition to the protonation constants, total basicity of ligands and stability constants of their Mn(II) complexes, the pMn value calculated for complexes are also represented in the table.

[4] = Equilibrium study: stability constants of the Mn(II) complexes and calculated pMn; format: physicochemical; settings: 25° C., 0.15M NaCl; for pMn: calculated from equilibrium constants at pH = 7.4 and cMn = cL = 10^−5 M
Description: as §1, §2
Based on the pMn values presented in Table 1 (calculated using the equilibrium constants at pH=7.4 and cMn=cL=10^−5 M), it can be concluded that the studied Mn(II) complexes are formed in 100% at physiological pH, which is an essential aspect of the practical use.

Row | SMILES | r1 relaxivity [1] [mM⁻¹ s⁻¹] | Gd(III) ion released, calculated on the basis of experiments ([2]; 25° C.) [%] | Gd(III) ion released during in vivo dissociation ([2]; 37° C.) [%] | logK1 (protonation constant) [3] | logK2 (protonation constant) [3] | ΣlogKi^H (total basicity) [3] | logKMnL (stability constant of Mn(II) complex) [4] | pMn [4] | logK3 (protonation constant) [3] | logK4 (protonation constant) [3]
1 | CNC[C@H](O)[C@@H](O)[C@H](O)[C@H](O)CO.O=C([O-])CN1CCN(CC(=O)[O-])CCN(CC(=O)O)CCN(CC(=O)[O-])CC1.[Gd+3] [DOTAREM] | 3.83 | – | – | – | – | – | – | – | – | –
2 | CNC[C@H](O)[C@@H](O)[C@H](O)[C@H](O)CO.CNC[C@H](O)[C@@H](O)[C@H](O)[C@H](O)CO.O=C([O-])CN(CCN(CC(=O)[O-])CC(=O)O)CCN(CC(=O)[O-])CC(=O)O.[Gd+3] [MAGNEVIST] | 4.02 | 0.5 | 2.2 | – | – | – | – | – | – | –
3 | O=C(CN1Cc2cccc(n2)CN(CC(=O)N2CCCCC2)Cc2cccc(n2)C1)N1CCCCC1 [BP2AM^Pyp, 2,11-bis[2-oxo-2-(piperidine-1-il)-ethyl]-2,11-diaza[3.3](2,6)-pyridinophane] | – | – | – | 9.57(2) | 2.99(2) | 12.56 | 13.58(1) | 8.19 | – | –
4 | O=C(O)C1CCCN1C(=O)CN1Cc2cccc(n2)CN(CC(=O)N2CCCC2C(=O)O)Cc2cccc(n2)C1 (stereo not shown) [BP2AM^Pro] | – | – | – | 8.83(1) | 3.89(2) | 18.16 | 11.47(5) | 7.51 | 3.05(2) | 2.39(2)
